Results filed as inconclusive are left out. Activity calls are given as the source filed them. How the calls were made is not given here.
The compounds below were run on C. albicans CaCi-8 + fluconazole, Alamar Blue growth, 48 h (assay: resistant C. albicans growth inhibition with fluconazole, dose response, CaCi-8 strain, Alamar Blue fluorescence (AID 2423)).

SMILES | EC50
NC(=O)c1c(NC(=O)c2ccncc2)sc2c1CCCC2 | 3450 nM
CCOC(=O)c1cc([N+](=O)[O-])c([N+](=O)[O-])cc1NC(C)=O | 692 nM
O=C(O)c1ccccc1-c1ccccc1C(=O)Nc1cccc(-c2nc3ccccc3o2)c1 | 2240 nM
CCC(=O)N1CCN(c2ccc(Cl)cc2NC(=O)c2ccc3c(c2)OCCO3)CC1 | 811 nM
O=C(N/N=C/c1cc([N+](=O)[O-])ccc1O)/C(=C\c1cccs1)NC(=O)c1ccccc1 | 3590 nM
Cc1ccccc1/C=C1\SC(=S)N(/N=C/c2cc([N+](=O)[O-])ccc2O)C1=O | 4060 nM
CCN(CC)c1ccc(/C=C/c2cccc[n+]2C)c(OC)c1 | 1230 nM
Cc1[nH]n(C(N)=S)c(=O)c1N=Nc1ccc(S(=O)(=O)N2CCCCCC2)cc1 | 9480 nM
CN(C)c1ccc(/C=C/c2ccc3ccccc3[n+]2C)cc1 | 370 nM
Brc1ccc(-c2nnc3sc(CN4CCN(c5ccccc5)CC4)cn23)cc1 | 288 nM
COC(=O)c1cc(C)sc1NC(=O)c1cccnc1 | 5890 nM
O=C(N/N=C/c1sc(N2CCOCC2)nc1-c1ccccc1)c1cccc(S(=O)(=O)N2CCCC2)c1 | 2160 nM
Nc1ncc(Br)cc1S(=O)(=O)Nc1cc(C(F)(F)F)cc(C(F)(F)F)c1 | 918 nM
Fc1cccc(-n2cc(-c3ccccc3)c3c(=S)nc[nH]c32)c1 | 1800 nM
Cc1cc(Nc2ccccc2)nc(NCc2ccccc2)n1 | 3350 nM
COc1cc(-c2nnc(SCc3cc(=O)oc4cc(O)c(O)cc34)o2)cc(OC)c1OC | 4390 nM
N#C/C(=C\c1ccc(N2CCOCC2)cc1)c1ccccc1 | 492 nM
O=C(CNS(=O)(=O)c1ccc(Br)s1)NCC1COc2ccccc2O1 (centres undefined) | > 15000 nM (inactive)
Cc1cc(C(=O)N/N=C/c2cc(Cl)cc([N+](=O)[O-])c2O)c2ccccc2n1 | 2790 nM
CCOC(=O)C1CCN(CCC(=O)Nc2ccc(F)cc2)CC1 | > 15000 nM (inactive)
COC(=O)/C(=N\Nc1ccc(Cl)cc1)Sc1nnc(-c2ccc(OC)cc2)n1C | > 16000 nM (inactive)
CCc1nnc(NC(=O)CSc2ncc(-c3ccccc3)n2C)s1 | 1640 nM
Fc1cccc2sc(Nc3nnc(-c4ccco4)o3)nc12 | > 15000 nM (inactive)
CCNC(=S)NNC(=O)c1cc(-c2ccc(OC)cc2)nc2ccccc12 | 4380 nM
COc1ccc(-[n+]2c(-c3ccccc3)cc(-c3ccccc3)cc2-c2ccccc2)cc1 | > 15000 nM (inactive)
O=C(c1ccc2c(c1)OCO2)N1CCC2(CC1)Oc1ccc(F)cc1C(=O)C21CC(c2cccnc2)=NO1 (centres undefined) | 402 nM
Oc1ccc2ccccc2c1/C=N/Nc1nnc(-c2ncc[nH]2)c2ccccc12 | 382 nM

SMILES | EC50
O=C(O)CCCCCN1C(=O)/C(=C\c2ccncc2)SC1=S | 898 nM
O=C(c1cc2ccccc2cc1O)N1CCN(c2ccccc2O)CC1 | 209 nM
COc1ccc(C(=O)NC(=S)NNC(=O)c2ccc(C)cc2)cc1 | 2410 nM
CC(=O)N1CCN(c2ccc(NC(=O)c3ccc(C(C)(C)C)cc3)cc2)CC1 | 11900 nM
Cc1sc(NC(=O)c2ccc(Br)s2)c(C(N)=O)c1C | 952 nM
CC1(C)COCN1S(=O)(=O)c1ccc(C(=O)Nc2nnc(-c3ccc(Cl)s3)o2)cc1 | 484 nM
CC(=O)c1c(C)[nH]c(C(=O)Nc2ccc(C)c(C)c2)c1C | 3450 nM
COc1ccc(C2N=C(Nc3ccc(C)cc3)Nc3nc(C)cc(=O)n32)cc1 (centres undefined) | > 16000 nM (inactive)
CCC(=O)NC(c1cccs1)c1ccc2cccnc2c1O (centres undefined) | 1510 nM
c1ccc(CC2CCN(c3ncnc4sccc34)CC2)cc1 | 1530 nM
CCCc1nnc(NC(=S)Nc2ccccc2)s1 | 1340 nM
COCCSc1nnc(NC(=O)C2CC(=O)N(c3ccc(C)cc3)C2)s1 (centres undefined) | > 16000 nM (inactive)
COc1ccc(-c2nnc(NC(=O)c3ccc(S(=O)(=O)N4CCc5ccccc5C4)cc3)o2)cc1 | 747 nM
O=C(c1cc2c(s1)-c1ccccc1OC2)N1CCC2(CC1)OCCO2 | 2000 nM
Cc1cccc(NC2=NC(=S)N(c3cccc(C(=O)O)c3)C23CCCCC3)c1 | 772 nM
O=C(NNC(=O)c1cc(-c2ccncc2)nc2ccccc12)c1ccccc1O | 2290 nM
CCN1/C(=C/c2ccc3cc(C)ccc3[n+]2CC)Sc2ccc3sccc3c21 | < 120 nM
O=c1cc(CSc2ccc(Cl)cc2)nc(-c2ccccn2)[nH]1 | 531 nM
CC1=C(CC[C@@H](C)CO)OC2CC3C4CCC5CC(O)CCC5(C)C4CC(=O)C3(C)C12 (some centres undefined) | 135 nM
O=[N+]([O-])c1ccc(S(=O)(=O)Nc2nc3ccccc3nc2Nc2ccccc2)cc1 | 1440 nM
CN1CCN(CC(=O)N2CCn3c4c(c5cc(C6CCCCC6)ccc53)CCCC42)CC1 (centres undefined) | 4190 nM
O=C(Nc1nnc(-c2ccco2)o1)c1ccc(Cl)cc1 | 1160 nM
COc1ccc(C)cc1N=Nc1ccc(O)c2ncccc12 | 656 nM
Oc1[nH]c2ccc(Br)cc2c1N=NC(=S)N1CCOCC1 | 3100 nM
CCN(CC)c1ccc(/C=C/C(=O)c2cccnc2)cc1 | < 120 nM
Cc1ccc(SCCC(=O)N/N=C/c2ccccc2O)cc1 | 14000 nM
NC(N)=N/N=C/c1ccc(N(c2ccccc2)c2ccccc2)cc1 | > 15000 nM (inactive)
